The record followed here is patent US20170105981A1, “METHODS FOR STABILIZING HYPOXIA INDUCIBLE FACTOR-2 ALPHA AS A METHOD FOR TREATING CANCER” (The Ohio State Innovation Foundation, priority 2011, published 2017).

For assay [1], the system named is tumor growth in HIF-2αflox/flox/LysMcre and LysMcre mice. Briefly: Tumor growth in mice with myeloid-specific deletion of HIF-2α vs LysMcre control mice. Format: in vivo. The following applies: FIG. 15. An excerpt:
(§1) HIF-2α^flox/flox mice (originally developed by Dr. Celeste Simon, University of Pennsylvania) and LysMcre recombinase mice (originally developed by Irmgard Foerster, University of Duesseldorf) (both purchased from The Jackson Laboratory, Bar Harbor, Me.) were crossed to generate mice homozygous for both LysMcre and the floxed HIF-2α allele. LysMcre recombinase mice, which express no floxed alleles, were used as controls. Deletion of HIF-2α in HIF-2α^flox/flox/LysMcre macrophages, but not the LysMcre control macrophages, was confirmed at the transcript level by real-time PCR.
The disclosed HIF-2α stabilizer is not targeted specifically to macrophages, and will stabilize HIF-2α in all tissues, not only the tumor-associated macrophages. In order to determine the role of macrophages in the anti-tumor response to the disclosed HIF-2α stabilizer, mice with a myeloid-specific deletion of HIF-2α (HIF-2α^flox/flox/LysMcre mice) were utilized.

For assay [2], the system named is HIF-2α. Briefly: Immunoblot for HIF-2α in murine bone marrow-derived macrophages. Format: cell-based. The following applies: murine bone marrow-derived macrophages treated 18 hours; p=0.001; FIG. 11A. The protocol:
To generate bone marrow-derived macrophages (BDMs), femoral bone marrow was isolated and progenitor cells were plated in RPMI-1640 supplemented with 10% FBS, 1% PSA, 10 μg/mL of polymyxin B, and 20 ng/mL of recombinant murine M-CSF. Cells were cultured for 5 days with the addition of fresh M-CSF every other day. Differentiated BDM were serum-starved for 2 hours and then treated with 100 ng/mL of murine GM-CSF and/or 25 μM the disclosed HIF-2α stabilizer in RPMI-1640 containing 1% FBS and 10 μg/mL polymixin B. Culture supernatants were collected after 72 hours and assayed for VEGF and sVEGFR-1 content by ELISA (R&D Systems).
In order to confirm the selective upregulation of HIF-2α by the disclosed HIF-2α stabilizer, murine bone marrow-derived macrophages were treated with the disclosed HIF-2α stabilizer for 18 hours, and cells were then lysed and immunoblotted for HIF-1α and HIF-2α.

Assay [3] relates to A375 human melanoma cells. Briefly: A375 human melanoma tumors in SCID mice. Format: in vivo. To be noted: at the time of sacrifice; stabilizer 17 mg/kg, docetaxel 1 mg/kg, IP 3 times per week. The protocol: 6-8-week-old C57BL/6 mice or SCID mice were injected with 1×10^5 B16F10 murine melanoma cells or 1×10^6 A375 human melanoma cells, respectively, subcutaneously on the left flank. […] Tumor diameters were measured 3 times per week with calipers, and tumor volumes will be calculated as follows: Tumor volume=0.5×[(large diameter)×(small diameter)^2].
In the study, immunocompromised SCID mice were inoculated with A375 human melanoma tumors subcutaneously. Starting when the tumors became palpable (7 days after injection), mice were treated with either the cytotoxic chemotherapy docetaxel or with the disclosed HIF-2α stabilizer. The disclosed HIF-2α stabilizer was given at a dose of 17 mg/kg, and the docetaxel was given at 1 mg/kg. Both drugs were given IP 3 times per week. […] At the time of sacrifice, the tumors in the mice that received only the disclosed HIF-2α stabilizer were approximately 78% of the size of the control tumors, the tumors of the mice that received only chemotherapy were approximately 50% of the size of the control tumors, and the tumors of the mice that received both drugs were approximately 16% of the size of the control tumors.

Assay [4] relates to VEGF mRNA. Briefly: VEGF mRNA expression (qPCR) in wild type murine embryonic fibroblasts. Format: cell-based. To be noted: hypoxic conditions (1% O2), 1, 10 and 100 μM, vs. hypoxia control, FIG. 1A. The protocol:
Total RNA was isolated from tissues and cells by using TRIzol™ Reagent (Invitrogen) and the RNeasy kit (Qiagen), respectively. 1 μg RNA was used for reverse transcription using SuperScript II First-Strand Synthersis System (Invitrogen). cDNA's were amplified in a SYR Green or TaqMan Universal Master Mix (Applied Biosystems). Quantitative PCR (qPCR) was performed on ABI Prism 7700 sequence detection system. PCR conditions are: 10 min at 95° C., 40 cycles of 15 seconds at 95° C. and 1 minute at 60° C. The relative amount of mRNA was calculated after normalization to β-actin.
Cells were cultured in DMEM (#11965-092, Invitrogen) supplemented with 10% fetal bovine serum (Invitrogen), 100 U/mL penicillin and […] streptomycin. For glucose deprivation, DMEM without glucose (#11966-025, Invitrogen) was used.
Mouse embryonic fibroblasts (MEFs) were isolated from E12.5 embryos and immortalized by stable transfection with SV40 large T antigen.

Assay [5] concerns sVEGFR-1. In words: sVEGFR-1 transcription in bone marrow-derived macrophages (LysMcre control vs HIF-2αflox/flox/LysMcre). The following applies: p=0.036, FIG. 11F. The assay is classed as cell-based, mice.
From the text: as §1
To generate bone marrow-derived macrophages (BDMs), femoral bone marrow was isolated and progenitor cells were plated in RPMI-1640 supplemented with 10% FBS, 1% PSA, 10 μg/mL of polymyxin B, and 20 ng/mL of recombinant murine M-CSF. Cells were cultured for 5 days with the addition of fresh M-CSF every other day. […]
Human monocytes were left untreated or were stimulated with 100 ng/mL GM-CSF at normoxia or at 0.5% O2. […] Data were analyzed according to the comparative threshold method and normalized against the β-actin internal control transcript. Results are semi-quantitative and represent the fold difference in transcript levels in a particular sample as compared with levels in untreated cells from the same donor. […]

As for `O=C(O)CNC(=O)c1ncc(-c2cccc(F)c2)cc1O` [disclosed HIF-2α stabilizer, {[5-(3-Fluorophenyl)-3-hydroxypyridine-2-carbonyl]amino} acetic acid], the tumor growth entry in assay [1] (LysMcre control mice) is given as “inhibited tumor growth”; in assay [1] (mice with HIF-2α-deficient macrophages, magnitude much less than in control mice), “reduced tumor growth”. Also, the HIF-2α protein entry in assay [2] is on record as “increase”. Moreover, the “tumor size as % of the size of the control tumors” value in assay [3] is “approximately 78%”. For the same compound, the “VEGF mRNA (relative amount)” value in assay [4] is recorded as “dramatic reduction”. Further, the sVEGFR-1 transcription result in assay [5] is recorded as “induced”.
